In experiment [1] the target is T1, Abl kinase (SEQ ID NO: 1) (Homo sapiens, UniProt P00519).
T1 construct: purchased deCode Genetics
T1 sequence (P00519 with tags, fused parts or gaps): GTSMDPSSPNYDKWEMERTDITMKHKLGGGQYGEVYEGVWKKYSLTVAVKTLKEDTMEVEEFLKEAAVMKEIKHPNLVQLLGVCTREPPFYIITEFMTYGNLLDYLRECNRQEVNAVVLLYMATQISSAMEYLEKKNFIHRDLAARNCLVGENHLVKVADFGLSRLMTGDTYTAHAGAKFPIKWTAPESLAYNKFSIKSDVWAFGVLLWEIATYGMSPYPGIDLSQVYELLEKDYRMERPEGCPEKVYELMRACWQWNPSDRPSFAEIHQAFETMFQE
As to the kind of experiment: Abl kinase (SEQ ID NO:1) assay, pyruvate kinase/lactate dehydrogenase coupled. Conditions: 2 h preincubation, ATP 500 μM; read-out: Biochemical IC50, Abl Enzyme Assay. The protocol:
Abl Kinase (SEQ ID NO:1) Assay
Activity of Abl kinase (SEQ ID NO: 1) was determined by following the production of ADP from the kinase reaction through coupling with the pyruvate kinase/lactate dehydrogenase system (e.g., Schindler, et al. Science (2000) 289, 1938-1942). In this assay, the oxidation of NADH (thus the decrease at A340 nm) was continuously monitored spectrophometrically. The reaction mixture (100 μl) contained Abl kinase (1 nM. Abl from deCode Genetics), peptide substrate (EAIYAAPFAKKK, 0.2 mM), MgCl2 (10 mM), pyruvate kinase (4 units), lactate dehydrogenase (0.7 units), phosphoenol pyruvate (1 mM), and NADH (0.28 mM) in 90 mM Tris buffer containing 0.2% octyl-glucoside and 3.5% DMSO, pH 7.5. Test compounds were incubated with Abl (SEQ ID NO:1) and other reaction reagents at 30° C. for 2 h before ATP (500 μM) was added to start the reaction. The absorption at 340 nm was monitored continuously for 2 hours at 30° C. on Polarstar Optima plate reader (BMG). The reaction rate was calculated using the 1.0 to 2.0 h time frame. Percent inhibition was obtained by comparison of reaction rate with that of a control (i.e. with no test compound). IC50 values were calculated from a series of percent inhibition values determined at a range of inhibitor concentrations using software routines as implemented in the GraphPad Prism software package.

Experiment [2] addresses T2, T315I Abl kinase (SEQ ID NO:2) (Homo sapiens, UniProt P00519, T315I).
T2 construct: purchased deCode Genetics
T2 sequence (P00519 with tags, fused parts or gaps T315I): T1 sequence (P00519 with tags, fused parts or gaps) with T94I
Kind of experiment: T315I Abl kinase (SEQ ID NO:2) assay, pyruvate kinase/lactate dehydrogenase coupled. Conditions: 1 h preincubation, ATP 500 μM; read-out: Biochemical IC50, Abl T315I Enzyme Assay. The protocol: Abl Kinase (SEQ ID NO:2) Assay
Activity of T315I Abl kinase (SEQ ID NO:2) was determined by following the production of ADP from the kinase reaction through coupling with the pyruvate kinase/lactate dehydrogenase system (e.g., Schindler, et al. Science (2000) 289, 1938-1942). In this assay, the oxidation of NADH (thus the decrease at A340 nm) was continuously monitored spectrophometrically. The reaction mixture (100 μl) contained Abl kinase (4.4 nM, […] Abl from deCode Genetics), peptide substrate (EAIYAAPFAKKK, 0.2 mM), MgCl2 (10 mM), pyruvate kinase (4 units), lactate dehydrogenase (0.7 units), phosphoenol pyruvate (1 mM), and NADH (0.28 mM) in 90 mM Tris buffer containing 0.2% octyl-glucoside and 1% DMSO, pH 7.5. Test compounds were incubated with T315I Abl (SEQ ID NO:2) and other reaction reagents at 30° C. for 1 h before ATP (500 μM) was added to start the reaction. The absorption at 340 nm was monitored continuously for 2 hours at 30° C. on Polarstar Optima plate reader (BMG). The reaction rate was calculated using the 1.0 to 2.0 h time frame. Percent inhibition was obtained by comparison of reaction rate with that of a control (i.e. with no test compound). IC50 values were calculated from a series of percent inhibition values determined at a range of inhibitor concentrations using software routines as implemented in the GraphPad Prism software package.

In experiment [3] the target is T3, BaF3 cells transfected with wild type p210 BCR-Abl (Homo sapiens, UniProt P00519).
T3 construct: fused on or other part: P11274 (Breakpoint cluster region protein)
As to the kind of experiment: Ba/F3 p210 whole cell proliferation assay. The experiment is classed as cell-based. The conditions noted are these: 72 hours, Cell Titer Blue; read-out: Whole Cell Antiproliferation IC50, Ba/F3 p210 whole cell proliferation assay. The protocol: (§1) BaF3 cells (parental or transfected with the following: wild type p210 BCR-Abl and T315I p210 BCR-Abl was obtained from Professor Richard Van Etten (New England Medical Center, Boston, Mass.). Briefly, cells were grown in RPMI 1640 supplemented with 10% characterized fetal bovine serum (HyClone, Logan, Utah) at 37 degrees Celsius, 5% CO2, 95% humidity. Cells were allowed to expand until reaching 80% saturation at which point they were subcultured or harvested for assay use.
(§2) A serial dilution of test compound was dispensed into a 96 well black clear bottom plate (Corning, Corning, N.Y.). For each cell line, three thousand cells were added per well in complete growth medium. Plates were incubated for 72 hours at 37 degrees Celsius, 5% CO2, 95% humidity. At the end of the incubation period Cell Titer Blue (Promega, Madison, Wis.) was added to each well and an additional 4.5 hour incubation at 37 degrees Celsius, 5% CO2, 95% humidity was performed. Plates were then read on a BMG Fluostar Optima (BMG, Durham, N.C.) using an excitation of 544 nm and an emission of 612 nm. Data was analyzed using Prism software (Graphpad, San Diego, Calif.) to calculate IC50's.
For orientation: Resazurin is reduced to fluorescent resorufin, in cell work by metabolically active cells.

Experiment [4] concerns the target T4, BaF3 cells transfected with T315I p210 BCR-Abl (Homo sapiens, UniProt P00519, T315I, cells depend on it).
T4 construct: fused on or other part: P11274 (Breakpoint cluster region protein)
As to the kind of experiment: Ba/F3 p210 T315I whole cell proliferation assay. Type of experiment: cell-based. The conditions noted are these: 72 hours, Cell Titer Blue; read-out: Whole Cell Antiproliferation IC50, Ba/F3 p210 T315I whole cell proliferation assay. How it is done:
as §1, §2

Positions count from the first letter of the chain named. Where only a bound is given, the exact number is not on record here.

A word on the IC50: it is the concentration that inhibits the measured activity by half. In the case of `Cn1cc(-c2cc(Oc3ccc(NC(=O)NC4CCN(C(C)(C)C)C4)c(F)c3)ccn2)cn1` (stereo not drawn) [Example 36, 1-(1-tert-butylpyrrolidin-3-yl)-3-(2-fluoro-4-(2-(1-methyl-1H-pyrazol-4-yl)pyridin-4-yloxy)phenyl)urea], the IC50 in experiment [1] is less than 1000 nM; in experiment [2], less than 10000 nM. The results for the GI50 in experiment [3] and in experiment [4] were less than 10000 nM and less than 100000 nM, respectively.
Consider `Cc1cc(NC(=O)Nc2ccc(Oc3ccnc(-c4cnn(C)c4)c3)cc2F)nn1C(C)(C)C` [Example 38, 1-(1-tert-butyl-5-methyl-1H-pyrazol-3-yl)-3-(2-fluoro-4-(2-(1-methyl-1H-pyrazol-4-yl)pyridin-4-yloxy)phenyl)urea], for which the half-maximal inhibitory concentration (IC50) is less than 100 nM in experiment [1] and less than 1000 nM in experiment [2]. Further, the figures for the GI50 in experiment [3] and in experiment [4] were less than 1000 nM and less than 100000 nM, respectively.
Regarding `Cn1cc(-c2cc(Oc3ccc(NC(=O)NC4CC(=O)N(C(C)(C)C)C4)c(F)c3)ccn2)cn1` (stereo not drawn) [Example 35, 1-(1-tert-butyl-5-oxopyrrolidin-3-yl)-3-(2-fluoro-4-(2-(1-methyl-1H-pyrazol-4-yl)pyridin-4-yloxy)phenyl)urea], the IC50 in experiment [1] was less than 1000 nM; in experiment [2], less than 10000 nM. Also, the GI50 in experiment [3] was less than 1000 nM; in experiment [4] it was less than 100000 nM.
For the compound `Cn1cc(-c2cc(Oc3ccc(NC(=O)Nc4nc5ccc(F)cc5s4)c(F)c3)ccn2)cn1` [Example 29, 1-(2-fluoro-4-(2-(1-methyl-1H-pyrazol-4-yl)pyridin-4-yloxy)phenyl)-3-(6-fluorobenzo[d]thiazol-2-yl)urea], the IC50 in experiment [1] was less than 100 nM. Moreover, the GI50 in experiment [3] is less than 1000 nM; in experiment [4], less than 100000 nM.
Take `Cn1cc(-c2cc(Oc3ccc(NC(=O)Nc4cnc(C(C)(C)C)o4)c(F)c3)ccn2)cn1` [Example 26, 1-(2-tert-butyloxazol-5-yl)-3-(2-fluoro-4-(2-(1-methyl-1H-pyrazol-4-yl)pyridin-4-yloxy)phenyl)urea]: in experiment [1], the IC50 was less than 100 nM.
`CC(C)n1cnc(NC(=O)Nc2ccc(Oc3ccnc(-c4cnn(C)c4)c3)cc2F)c1` [Example 34, 1-(2-fluoro-4-(2-(1-methyl-1H-pyrazol-4-yl)pyridin-4-yloxy)phenyl)-3-(1-isopropyl-1H-imidazol-4-yl)urea]: the half-maximal inhibitory concentration (IC50) in experiment [1] and in experiment [2] was less than 100 nM in each case. The GI50 in experiment [3] was less than 100 nM; in experiment [4], less than 1000 nM.
As to `Cc1ncc(C(F)(F)F)cc1NC(=O)Nc1ccc(Oc2ccnc(-c3cnn(C)c3)c2)cc1F` [Example 37, 1-(2-fluoro-4-(2-(1-methyl-1H-pyrazol-4-yl)pyridin-4-yloxy)phenyl)-3-(2-methyl-5-(trifluoromethyl)pyridin-3-yl)urea], the concentration for half-maximal inhibition (IC50) in experiment [1] and in experiment [2] was less than 100 nM each time. The GI50 in experiment [3] and in experiment [4] was less than 100 nM in each case.
Regarding `Cc1c(C(C)(C)C)noc1NC(=O)Nc1ccc(Oc2ccnc(-c3cnn(C)c3)c2)cc1F` [Example 31, 1-(3-tert-butyl-4-methylisoxazol-5-yl)-3-(2-fluoro-4-(2-(1-methyl-1H-pyrazol-4-yl)pyridin-4-yloxy)phenyl)urea], the half-inhibitory concentration (IC50) in experiment [1] and in experiment [2] was less than 100 nM in each case. Also, the GI50 in experiment [3] and in experiment [4] was less than 100 nM in each case.
For `Cn1cc(-c2cc(Oc3ccc(NC(=O)Nc4cc(C5CC5)nn4C)c(F)c3)ccn2)cn1` [Example 33, 1-(3-cyclopropyl-1-methyl-1H-pyrazol-5-yl)-3-(2-fluoro-4-(2-(1-methyl-1H-pyrazol-4-yl)pyridin-4-yloxy)phenyl)urea], the IC50 in experiment [1] and in experiment [2] was less than 1000 nM in each case. The GI50 in experiment [3] and in experiment [4] was less than 1000 nM throughout.
On to `CCc1cncc(NC(=O)Nc2ccc(Oc3ccnc(-c4cnn(C)c4)c3)cc2F)c1` [Example 32, 1-(5-ethylpyridin-3-yl)-3-(2-fluoro-4-(2-(1-methyl-1H-pyrazol-4-yl)pyridin-4-yloxy)phenyl)urea], for which the IC50 in experiment [1] and in experiment [2] was less than 100 nM in each case. Besides, the GI50 in experiment [3] and in experiment [4] was less than 100 nM throughout.
As for `Cc1c(NC(=O)Nc2ccc(Oc3ccnc(-c4cnn(C)c4)c3)cc2F)cnn1C1CCCC1` [Example 23, 1-(1-cyclopentyl-5-methyl-1H-pyrazol-4-yl)-3-(2-fluoro-4-(2-(1-methyl-1H-pyrazol-4-yl)pyridin-4-yloxy)phenyl)urea], the concentration for half-maximal inhibition (IC50) in experiment [1] was less than 100 nM. Further, the GI50 in experiment [3] is less than 100 nM; in experiment [4], less than 1000 nM.

The record behind these values is US8143293B2, “Kinase inhibitors useful for the treatment of myleoprolific diseases and other proliferative diseases” (Deciphera Pharmaceuticals, LLC, priority 2007, dated 2012).
